These results are taken from patent US7615359B2, “Copolymer 1 related polypeptides for use as molecular weight markers and for therapeutic use” (Yeda Research and Development Co., Ltd., priority 1998, dated 2009).

The subject of assay [1] is anti-Cop-1 (3-3-9) monoclonal antibody. The assay is described as follows: RIA: binding of anti-Cop 1 monoclonal antibody to coated antigen. As to conditions: relative to Cop 1 reference standard; 2 µg/ml coating antigen.
Assay [2] has as its system anti-Cop-1 (3-1-45) monoclonal antibody. The assay is described as above. The settings on record: relative to Cop 1 reference standard; 2 µg/ml coating antigen.
In assay [3] the test system is SC-103 human Cop 1 specific T cell clone. The assay is described as follows: Proliferation of Cop 1 specific T cell line (3H-thymidine uptake). As to conditions: 10 µg antigen; relative to Cop 1.
Assay [4] relates to experimental allergic encephalomyelitis (EAE) in (SJL/JxBALB/c)FI mice. The assay is described as follows: Blocking of experimental allergic encephalomyelitis (EAE) by injection with complete adjuvant. The assay is classed as in vivo, mouse. The settings on record: for Incidence of EAE: antigen included in the encephalitogenic inoculum, animals with EAE/animals; for % Blocking: blocking of EAE vs control inoculum; for Mean Score: disease score 0 (healthy) to 5 (dead); for Mean Onset: animals not protected, onset = day of disease score of at least 1. The source says: Blocking of Experimental Allergic Encephalomyelitis—To test the physiological activity of TV-markers, protection from experimental allergic encephalomyelitis (EAE) was investigated in mice. Injection of Copolymer 1 in complete Freund's adjuvant together with the encephalitogen can block EAE essentially as described in Aharoni et al., 17 EUR. J. IMMUNOL. 23 (1993). Other researchers have observed that the therapeutic effect of Copolymer 1 in multiple sclerosis patients is also associated with the induction of TH2 cells. Lahat et al., 244 J. NEUROL. 129 (1997). In this example, EAE is blocked by different polypeptides of the present invention.
Pertussis toxin (0.25 ml, 250 ng, Sigma) is injected intravenously, immediately after and 48 hr later. […] 2156 (1979).
EAE blocking by injection with complete adjuvant—Each antigen being tested was included in the encephalitogenic inoculum. […] Also shown is the mean onset of EAE in animals which were not protected. Disease intensity is scored daily in mice with a score of zero (0=healthy) to five (5=dead).

Assay [5] concerns anti-Cop-1 (5-7-2) monoclonal antibody. The assay is described as follows: RIA: binding of anti-Cop 1 monoclonal antibody to coated antigen. As to conditions: relative to Cop 1 reference standard; 2 µg/ml coating antigen.
Assay [6] has as its system L-22-1 T cell clone. The assay is described as follows: Proliferation of Cop 1 specific T cell line (3H-thymidine uptake). As to conditions: 10 µg antigen; relative to Cop 1.
For assay [7], the system named is BALB/c-Ts-Cop-1 T cell line. Described as above. The settings on record: 10 µg antigen; relative to Cop 1.

As to “glatiramer acetate [compound 55396, reference compound]”, in assay [1], the “Binding of mAb anti-Cop-1 (3-3-9), % Cop1 binding” value (“Binding … (3-3-9), % Cop1 binding” for short) was 90%. In assay [2], the “Binding of mAb anti-Cop-1 (3-1-45), % Cop1 binding” value (shortened to “Binding … (3-1-45), % Cop1 binding”) amounted to 85%. The “3H-Thymidine incorporation, % Cop1, SC-103” value in assay [3] is given as 80%. Further, in assay [4], the “Incidence of EAE” value is 0/10, the “% Blocking” value was found to be 100% and the “Mean Score” value stood at 0. Further, the “Binding of mAb anti-Cop-1 (5-7-2), % Cop1 binding” value (“Binding … (5-7-2), % Cop1 binding” for short) in assay [5] was found to be 86%. For the same molecule, the “3H-Thymidine incorporation, % Cop1, L-22-1” value in assay [6] was 105%. In assay [7], the “3H-Thymidine incorporation, % Cop1, BALB/c-Ts-Cop-1” value amounted to 105%.
Consider “AKKYAKKAKAEKAKKAYKAAEAKKAAKYEKAAAEKAAAKEAAYEA [TV-45]”, for which, in assay [4], the “Incidence of EAE” value is listed as 0/10 and the “% Blocking” value was 100%.
“AKKYAKKEKAYAKKAEKAAKKAEAKAYKAAEAKKKAEAKYKAEAAKAAAKEAAYEA [TV-56]”: the “Binding … (3-3-9), % Cop1 binding” value in assay [1] is 2%. In assay [2], the “Binding … (3-1-45), % Cop1 binding” value is given as 6%. Also, the “3H-Thymidine incorporation, % Cop1, SC-103” value in assay [3] is given as 0%. In addition, the “Binding … (5-7-2), % Cop1 binding” value in assay [5] is given as 91%. The “3H-Thymidine incorporation, % Cop1, L-22-1” value in assay [6] was 0%. Moreover, in assay [7], the “3H-Thymidine incorporation, % Cop1, BALB/c-Ts-Cop-1” value stood at 59%.
Take “glatiramer acetate [compound 03494, reference compound]”: in assay [4], the “Incidence of EAE” value was 0/10, the “% Blocking” value amounted to 100% and the “Mean Score” value is 0.
For “AKKYAKKEKAAKKAYKKEAKAKAAEAAAKEAAYEA [TV-35]”, the “Binding … (3-3-9), % Cop1 binding” value in assay [1] was found to be 0%. In addition, the “Binding … (3-1-45), % Cop1 binding” value in assay [2] stood at 0%. Further, the “3H-Thymidine incorporation, % Cop1, SC-103” value in assay [3] turned out to be 0%. Besides, the “Binding … (5-7-2), % Cop1 binding” value in assay [5] was 1%. For the same molecule, the “3H-Thymidine incorporation, % Cop1, L-22-1” value in assay [6] was 0%. Further, the “3H-Thymidine incorporation, % Cop1, BALB/c-Ts-Cop-1” value in assay [7] is 28%.
For the molecule “glatiramer acetate [compound 55296, reference compound]”, the “Binding … (3-3-9), % Cop1 binding” value in assay [1] is 91%. The “Binding … (3-1-45), % Cop1 binding” value in assay [2] came to 83%. For the same molecule, the “3H-Thymidine incorporation, % Cop1, SC-103” value in assay [3] was determined as 81%. Moreover, the “Binding … (5-7-2), % Cop1 binding” value in assay [5] was determined as 82%. Besides, the “3H-Thymidine incorporation, % Cop1, L-22-1” value in assay [6] worked out at 106%. Moreover, the “3H-Thymidine incorporation, % Cop1, BALB/c-Ts-Cop-1” value in assay [7] was 110%.

B1: AKKYAKKEKAYAKKAEKAAKKAEAKAYKAAEAKKKAKAEAKKYAKAAKAEKKEYAAAEAKYKAEAAKKAYKAEAAKAAAKEAAYEA (peptide)
chain: AKKYAKKEKAYAKKAEKAAKKAEAKAYKAAEAKKKAKAEAKKYAKAAKAEKKEYAAAEAKYKAEAAKKAYKAEAAKAAAKEAAYEA
Regarding B1, the “Binding … (3-3-9), % Cop1 binding” value in assay [1] is given as 2%. Further, the “Binding … (3-1-45), % Cop1 binding” value in assay [2] came to 6%. The “3H-Thymidine incorporation, % Cop1, SC-103” value in assay [3] turned out to be 0%. In assay [4], the “Mean Onset” value was determined as 12.0 days, the “Incidence of EAE” value is on record as 3/10 and the “% Blocking” value was found to be 70%. The “Binding … (5-7-2), % Cop1 binding” value in assay [5] came out at 76%. The “3H-Thymidine incorporation, % Cop1, L-22-1” value in assay [6] was found to be 1%. In addition, the “3H-Thymidine incorporation, % Cop1, BALB/c-Ts-Cop-1” value in assay [7] is 44%.

B2: AKKYAKKAEKAYAKKAKAAKEKKAYAKKEAKAYKAAEAKKKAKAEAKKYAKEAAKAKKEAYKAEAKKYAKAAKAEKKEYAAAEAKKAEAAKAYKAEAAKAAAKEAAYEA (peptide)
chain: AKKYAKKAEKAYAKKAKAAKEKKAYAKKEAKAYKAAEAKKKAKAEAKKYAKEAAKAKKEAYKAEAKKYAKAAKAEKKEYAAAEAKKAEAAKAYKAEAAKAAAKEAAYEA
notes: reversed-phase fraction 2 designated TV-109
Consider B2, for which, in assay [4], the “Incidence of EAE” value was 0/10 and the “% Blocking” value is listed as 100%.

B3: AKKYAKKEKAYAKAKKAEAKAAKKAKAEAKKYAKAAKAEKKEYAAAEAKYKAEAAKAAAKEAAYEA (peptide)
chain: AKKYAKKEKAYAKAKKAEAKAAKKAKAEAKKYAKAAKAEKKEYAAAEAKYKAEAAKAAAKEAAYEA
As to B3, in assay [4], the “Mean Onset” value amounted to 11.7 days, the “Incidence of EAE” value is given as 6/10 and the “% Blocking” value is 40%.

B4: AKKYAKKEKAYAKKAEKAAKKAEAKAYKAAEAKKKAKAEAKKYAKAAKAEKKEYAAAEAKYKAEAAKAAAKEAAYEA (peptide)
chain: AKKYAKKEKAYAKKAEKAAKKAEAKAYKAAEAKKKAKAEAKKYAKAAKAEKKEYAAAEAKYKAEAAKAAAKEAAYEA
As to B4, in assay [1], the “Binding … (3-3-9), % Cop1 binding” value turned out to be 6%. Also, in assay [2], the “Binding … (3-1-45), % Cop1 binding” value was 9%. In assay [3], the “3H-Thymidine incorporation, % Cop1, SC-103” value came out at 0%. Further, in assay [4], the “Mean Onset” value turned out to be 14.0 days, the “Incidence of EAE” value is 1/9 and the “% Blocking” value was 89%. In addition, in assay [5], the “Binding … (5-7-2), % Cop1 binding” value came to 37%. The “3H-Thymidine incorporation, % Cop1, L-22-1” value in assay [6] turned out to be 1%. In addition, the “3H-Thymidine incorporation, % Cop1, BALB/c-Ts-Cop-1” value in assay [7] is 52%.
